These results are taken from patent US11813326B2, “Cell-associating immunologic adjuvants for treatment enhancement” (ACADEMIA SINICA, priority 2018, dated 2023).

Series [1] concerns B16-OVA tumors. The experiment in a line: Adjuvant retention in tumors and cancer cells after intratumoral injection. The class given is in vivo, B6 mice. The settings on record: intra-tumoral, 24 hours. How it is done:
To validate cell-associating effect of the nanoparticle adjuvant formulation, B6 mice were inoculated subcutaneously with B16-OVA tumors. Nanoparticle-mediated adjuvant retention with the B16 cells was validated using whole body imaging, flow cytometric analysis, and fluorescence microscopy. Dye-labelled STING agonist (2′-[DY-547]-AHC-c-diGMP) was administered in its free form and nanoparticle form intra-tumorally and examined after 24 hours.

Series [2] is described as follows: Encapsulation efficiency of thin-shell polymeric nanoparticles. The class given is physicochemical. The settings on record: for encapsulation efficiency: cargo in thin-shell hollow PLGA nanoparticles.
Series [3] in a line: In vivo immune potentiation after footpad injection (lymph node IFN-β, serum TNF-α). Conditions: after footpad administration, mice. How it is done:
Immune potentiation by the cd-GMP nanoparticles was further compared to free cd-GMP in vivo in mice. 48 hours following footpad injections, the draining popliteal lymph nodes were collected for IFN-β quantification. […] In addition, the systemic level of TNF-α, an indicator of reactogenicity, was also monitored following the footpad administration of free cd-GMP and cd-GMP nanoparticles.

Series [4] deals with B16-OVA tumors. The series can be described thus: Tumor treatment efficacy of adjuvant plus cisplatin, B16-OVA subcutaneous model. The class given is in vivo, B6 mice. The settings on record: intra-tumoral treatment. The protocol: To study the in vivo efficiency of the treatment modality, B6 mice were inoculated subcutaneously with B16-OVA tumors. When the tumors appeared palpable, they were pre-treated with free cGAMP or cGAMP-loaded nanoparticles prior to chemotherapy by cisplatin (CTTP). 24 hours following intra-tumoral adjuvant administration, the mice were given an intra-tumoral cisplatin injection to induce cell death (FIG. 9(a)). These two groups are designated cGAMP+CTTP and NP+CTTP to differentiate the use of free cGAMP and cGAMP-loaded nanoparticles, respectively. For controls, tumor-bearing mice receiving no treatment (placebo), cistplatin only (CTTP only) and cGAMP-loaded nanoparticles only (NP only) were also prepared. For cGAMP administration, 2.5 μg of the adjuvant was administered in 50 μL of solution. For cisplatin administration, 235 μg of the chemodrug was administered in 100 μL of solution. Following the different treatments, the tumor volumes were monitored over time. […] In contrast, no other group had any tumor with complete regression (FIG. 9(b), (c)). […] With the tumor-free surviving mice from the NP+CTTP group, 4 of them were re-challenged with B16-OVA cells on day 60 and compared to animals that had no prior tumor challenge and treatment.

A further series has as its system HeLa cells. The experiment in a line: Association of cGAMP adjuvant with HeLa cells and cisplatin-induced debris (confocal, FACS). The class given is cell-based.

For 2′-[DY-547]-AHC-c-diGMP [free adjuvant], the “adjuvant association within the cancer cells” value in the series on B16-OVA tumors [1] (flow cytometry and confocal microscopy of extracted cells) is recorded as “little adjuvant retention”. Besides, the “adjuvant retention inside the tumor” value with B16-OVA tumors [1] (whole body imaging) is “little adjuvant retention”.
The molecule “dye-labelled BSA: dye-labelled bovine serum albumin cargo” came in with an encapsulation efficiency in series [2] of 35%.
Take `Nc1nc2c(ncn2[C@@H]2O[C@@H]3COP(=O)(O)O[C@H]4[C@@H](O)[C@H](n5cnc6c(=O)[nH]c(N)nc65)O[C@@H]4COP(=O)(O)O[C@H]3[C@H]2O)c(=O)[nH]1` [cyclic di-GMP]: the encapsulation efficiency in series [2] is recorded as 37%; in series [2] (listed as cd-GMP), “about 40%”. Besides, in series [2] (loading concentration 8 mM DNA, 50 mg/mL BSA, cd-GMP at about 40% efficiency), the “cargo molecules per nanoparticle” value was “approximately 2,000”. Further, the “serum level of TNF-α (indicator of reactogenicity)” value in series [3] is “elevated level”.
Regarding `N.N.[Cl][Pt][Cl]` [CTTP only, cisplatin], the tumor regression entry in the series with B16-OVA tumors [4] is “neither CTTP only nor NP only treatment induced tumor regression”.
As to `Nc1nc2c(ncn2[C@@H]2O[C@@H]3COP(=O)(O)O[C@H]4[C@@H](O)[C@H](n5cnc6c(N)ncnc65)O[C@@H]4COP(=O)(O)O[C@@H]2[C@@H]3O)c(=O)[nH]1` [free cGAMP, 2′3′-cGAMP], in the series on HeLa cells, the “capacity to associate with the cells” value was “little capacity”.
